{"source": "the supplement of paper PMC10307832", "assay_in_all_cases": "relative viability (nuclei count vs DMSO), 5 days (fraction); higher = more cells survive", "key": {"[1]": {"tested_on": "201T", "in_short": "(§1)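 Values are medians from duplicate plates. Each reflects relative viability, defined as the nuclei count of treated wells over that of vehicle wells. Lung cancer cell lines in 1536-well plates were pin-tool dosed one day after seeding with one drug alone or with a fixed anchor-drug dose plus five library-drug doses (not always all listed) in √10 steps, then fixed, stained and imaged at 4× after 5 days.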"}, "[2]": {"tested_on": "A-427", "in_short": "as §1"}, "[3]": {"tested_on": "BEN", "in_short": "as §1"}, "[4]": {"tested_on": "COR-L23", "in_short": "as §1"}, "[5]": {"tested_on": "EKVX", "in_short": "as §1"}, "[6]": {"tested_on": "EMC-BAC-2", "in_short": "as §1"}, "[7]": {"tested_on": "EPLC-272H", "in_short": "as §1"}, "[8]": {"tested_on": "HCC-827", "in_short": "as §1"}, "[9]": {"tested_on": "LCLC-103H", "in_short": "as §1"}, "[10]": {"tested_on": "LK-2", "in_short": "as §1"}, "[11]": {"tested_on": "LXF-289", "in_short": "as §1"}, "[12]": {"tested_on": "NCI-H1650", "in_short": "as §1"}, "[13]": {"tested_on": "NCI-H1651", "in_short": "as §1"}, "[14]": {"tested_on": "NCI-H1793", "in_short": "as §1"}, "[15]": {"tested_on": "NCI-H1915", "in_short": "as §1"}, "[16]": {"tested_on": "NCI-H2087", "in_short": "as §1"}, "[17]": {"tested_on": "NCI-H2126", "in_short": "as §1"}, "[18]": {"tested_on": "NCI-H2347", "in_short": "as §1"}, "[19]": {"tested_on": "NCI-H358", "in_short": "as §1"}, "[20]": {"tested_on": "NCI-H460", "in_short": "as §1"}, "[21]": {"tested_on": "NCI-H596", "in_short": "as §1"}, "[22]": {"tested_on": "SW 1573", "in_short": "as §1"}}}
{"smiles": "O=c1[nH]c2ccccc2n1C1CCN(CCCC(c2ccc(F)cc2)c2ccc(F)cc2)CC1", "note": "[Pimozide] + COc1cc2c(Oc3ccc(NC(=O)C4(C(=O)Nc5ccc(F)cc5)CC4)cc3F)ccnc2cc1OCCCN1CCOCC1 [Foretinib] (partner 0.25 µM)", "values": [{"measurement": "relative viability", "setting": "[1]; first compound 0.08 µM", "value": 1.08}, {"measurement": "relative viability", "setting": "[1]; first compound 0.253 µM", "value": 1.06}, {"measurement": "relative viability", "setting": "[1]; first compound 0.8 µM", "value": 0.979}, {"measurement": "relative viability", "setting": "[1]; first compound 2.53 µM", "value": 1.02}, {"measurement": "relative viability", "setting": "[1]; first compound 8 µM", "value": 0.909}, {"measurement": "relative viability", "setting": "[2]; first compound 0.08 µM", "value": 1.02}, {"measurement": "relative viability", "setting": "[2]; first compound 0.253 µM", "value": 1.04}, {"measurement": "relative viability", "setting": "[2]; first compound 0.8 µM", "value": 0.976}, {"measurement": "relative viability", "setting": "[2]; first compound 2.53 µM", "value": 0.669}, {"measurement": "relative viability", "setting": "[2]; first compound 8 µM", "value": 0.966}, {"measurement": "relative viability", "setting": "[3]; first compound 0.08 µM", "value": 0.624}, {"measurement": "relative viability", "setting": "[3]; first compound 0.253 µM", "value": 0.768}, {"measurement": "relative viability", "setting": "[3]; first compound 0.8 µM", "value": 0.618}, {"measurement": "relative viability", "setting": "[3]; first compound 2.53 µM", "value": 0.581}, {"measurement": "relative viability", "setting": "[3]; first compound 8 µM", "value": 0.783}, {"measurement": "relative viability", "setting": "[4]; first compound 0.08 µM", "value": 1.01}, {"measurement": "relative viability", "setting": "[4]; first compound 0.253 µM", "value": 0.951}, {"measurement": "relative viability", "setting": "[4]; first compound 0.8 µM", "value": 0.909}, {"measurement": "relative viability", "setting": "[4]; first compound 2.53 µM", "value": 1.05}, {"measurement": "relative viability", "setting": "[4]; first compound 8 µM", "value": 0.905}, {"measurement": "relative viability", "setting": "[5]; first compound 0.08 µM", "value": 0.196}, {"measurement": "relative viability", "setting": "[5]; first compound 0.253 µM", "value": 0.827}, {"measurement": "relative viability", "setting": "[5]; first compound 0.8 µM", "value": 0.764}, {"measurement": "relative viability", "setting": "[5]; first compound 2.53 µM", "value": 0.747}, {"measurement": "relative viability", "setting": "[5]; first compound 8 µM", "value": 0.908}, {"measurement": "relative viability", "setting": "[6]; first compound 0.08 µM", "value": 0.989}, {"measurement": "relative viability", "setting": "[6]; first compound 0.253 µM", "value": 1.03}, {"measurement": "relative viability", "setting": "[6]; first compound 0.8 µM", "value": 0.986}, {"measurement": "relative viability", "setting": "[6]; first compound 2.53 µM", "value": 0.841}, {"measurement": "relative viability", "setting": "[6]; first compound 8 µM", "value": 0.686}, {"measurement": "relative viability", "setting": "[7]; first compound 0.08 µM", "value": 0.631}, {"measurement": "relative viability", "setting": "[7]; first compound 0.253 µM", "value": 0.667}, {"measurement": "relative viability", "setting": "[7]; first compound 0.8 µM", "value": 0.539}, {"measurement": "relative viability", "setting": "[7]; first compound 2.53 µM", "value": 0.175}, {"measurement": "relative viability", "setting": "[7]; first compound 8 µM", "value": 0.567}, {"measurement": "relative viability", "setting": "[8]; first compound 0.253 µM", "value": 1.01}, {"measurement": "relative viability", "setting": "[8]; first compound 0.8 µM", "value": 0.915}, {"measurement": "relative viability", "setting": "[8]; first compound 2.53 µM", "value": 0.967}, {"measurement": "relative viability", "setting": "[8]; first compound 8 µM", "value": 0.904}, {"measurement": "relative viability", "setting": "[9]; first compound 0.08 µM", "value": 0.946}, {"measurement": "relative viability", "setting": "[9]; first compound 0.253 µM", "value": 0.716}, {"measurement": "relative viability", "setting": "[9]; first compound 0.8 µM", "value": 0.747}, {"measurement": "relative viability", "setting": "[9]; first compound 2.53 µM", "value": 0.678}, {"measurement": "relative viability", "setting": "[9]; first compound 8 µM", "value": 0.591}, {"measurement": "relative viability", "setting": "[10]; first compound 0.08 µM", "value": 1.65}, {"measurement": "relative viability", "setting": "[10]; first compound 0.253 µM", "value": 0.98}, {"measurement": "relative viability", "setting": "[10]; first compound 2.53 µM", "value": 0.875}, {"measurement": "relative viability", "setting": "[10]; first compound 8 µM", "value": 1.24}, {"measurement": "relative viability", "setting": "[11]; first compound 0.08 µM", "value": 0.989}, {"measurement": "relative viability", "setting": "[11]; first compound 0.253 µM", "value": 0.929}, {"measurement": "relative viability", "setting": "[11]; first compound 0.8 µM", "value": 0.944}, {"measurement": "relative viability", "setting": "[11]; first compound 2.53 µM", "value": 0.892}, {"measurement": "relative viability", "setting": "[11]; first compound 8 µM", "value": 0.934}, {"measurement": "relative viability", "setting": "[12]; first compound 0.08 µM", "value": 0.72}, {"measurement": "relative viability", "setting": "[12]; first compound 0.253 µM", "value": 1.23}, {"measurement": "relative viability", "setting": "[12]; first compound 0.8 µM", "value": 0.959}, {"measurement": "relative viability", "setting": "[12]; first compound 2.53 µM", "value": 1.17}, {"measurement": "relative viability", "setting": "[12]; first compound 8 µM", "value": 0.933}, {"measurement": "relative viability", "setting": "[13]; first compound 0.08 µM", "value": 0.763}, {"measurement": "relative viability", "setting": "[13]; first compound 0.253 µM", "value": 0.717}, {"measurement": "relative viability", "setting": "[13]; first compound 0.8 µM", "value": 0.867}, {"measurement": "relative viability", "setting": "[13]; first compound 2.53 µM", "value": 0.871}, {"measurement": "relative viability", "setting": "[13]; first compound 8 µM", "value": 0.869}, {"measurement": "relative viability", "setting": "[14]; first compound 0.253 µM", "value": 0.691}, {"measurement": "relative viability", "setting": "[14]; first compound 0.8 µM", "value": 0.462}, {"measurement": "relative viability", "setting": "[14]; first compound 2.53 µM", "value": 0.582}, {"measurement": "relative viability", "setting": "[14]; first compound 8 µM", "value": 0.521}, {"measurement": "relative viability", "setting": "[15]; first compound 0.08 µM", "value": 1.05}, {"measurement": "relative viability", "setting": "[15]; first compound 0.253 µM", "value": 1.01}, {"measurement": "relative viability", "setting": "[15]; first compound 0.8 µM", "value": 0.855}, {"measurement": "relative viability", "setting": "[15]; first compound 2.53 µM", "value": 0.974}, {"measurement": "relative viability", "setting": "[15]; first compound 8 µM", "value": 1.05}, {"measurement": "relative viability", "setting": "[16]; first compound 0.08 µM", "value": 1.21}, {"measurement": "relative viability", "setting": "[16]; first compound 0.253 µM", "value": 0.984}, {"measurement": "relative viability", "setting": "[16]; first compound 2.53 µM", "value": 1.17}, {"measurement": "relative viability", "setting": "[16]; first compound 8 µM", "value": 1.09}, {"measurement": "relative viability", "setting": "[17]; first compound 0.08 µM", "value": 1.39}, {"measurement": "relative viability", "setting": "[17]; first compound 0.253 µM", "value": 1.14}, {"measurement": "relative viability", "setting": "[17]; first compound 0.8 µM", "value": 1.06}, {"measurement": "relative viability", "setting": "[17]; first compound 2.53 µM", "value": 1.23}, {"measurement": "relative viability", "setting": "[17]; first compound 8 µM", "value": 1.13}, {"measurement": "relative viability", "setting": "[18]; first compound 0.08 µM", "value": 0.883}, {"measurement": "relative viability", "setting": "[18]; first compound 0.253 µM", "value": 0.622}, {"measurement": "relative viability", "setting": "[18]; first compound 0.8 µM", "value": 0.964}, {"measurement": "relative viability", "setting": "[18]; first compound 2.53 µM", "value": 1.35}, {"measurement": "relative viability", "setting": "[18]; first compound 8 µM", "value": 1.07}, {"measurement": "relative viability", "setting": "[19]; first compound 0.08 µM", "value": 0.671}, {"measurement": "relative viability", "setting": "[19]; first compound 0.253 µM", "value": 0.661}, {"measurement": "relative viability", "setting": "[19]; first compound 0.8 µM", "value": 0.578}, {"measurement": "relative viability", "setting": "[19]; first compound 2.53 µM", "value": 0.562}, {"measurement": "relative viability", "setting": "[19]; first compound 8 µM", "value": 0.695}, {"measurement": "relative viability", "setting": "[20]; first compound 0.08 µM", "value": 0.973}, {"measurement": "relative viability", "setting": "[20]; first compound 0.253 µM", "value": 1.03}, {"measurement": "relative viability", "setting": "[20]; first compound 0.8 µM", "value": 0.872}, {"measurement": "relative viability", "setting": "[20]; first compound 2.53 µM", "value": 0.864}, {"measurement": "relative viability", "setting": "[20]; first compound 8 µM", "value": 0.867}, {"measurement": "relative viability", "setting": "[21]; first compound 0.08 µM", "value": 0.883}, {"measurement": "relative viability", "setting": "[21]; first compound 0.253 µM", "value": 0.902}, {"measurement": "relative viability", "setting": "[21]; first compound 0.8 µM", "value": 1.02}, {"measurement": "relative viability", "setting": "[21]; first compound 2.53 µM", "value": 0.78}, {"measurement": "relative viability", "setting": "[21]; first compound 8 µM", "value": 0.821}, {"measurement": "relative viability", "setting": "[22]; first compound 0.08 µM", "value": 0.803}, {"measurement": "relative viability", "setting": "[22]; first compound 0.253 µM", "value": 0.946}, {"measurement": "relative viability", "setting": "[22]; first compound 0.8 µM", "value": 0.86}, {"measurement": "relative viability", "setting": "[22]; first compound 2.53 µM", "value": 0.892}, {"measurement": "relative viability", "setting": "[22]; first compound 8 µM", "value": 1.04}]}
